Literature values, collected in US5707620A (priority 1995, dated 1998).

System: hemagglutinins
Details: cited from earlier work

N=C(N)NCCC[C@H](N)C(=O)O [arginine]
inhibition of activity of hemagglutinins: inhibited by arginine

NCCCC[C@H](N)C(=O)O [lysine]
inhibition of activity of hemagglutinins: to a lesser extent, lysine
